From paper PMC4999848 (Toxins, 2016)
“And” between values parts separate entries of the source, which are not always exact repeats. Identical values can stand only once.

Legend:
[1] = tested on: A498 cells; assay: Deacetylation of 3/15ADON by A498 cells; type: in vitro ADME, human
Method: A498, Caco-2, T84 and HepG2 cells were used as models of human renal, small intestinal, colonic and hepatic cells, respectively. Cells were routinely grown in culture media (Dulbecco’s Modified Eagle Medium (DMEM), DMEM:F12 mixture and Minimum Essential Media (MEM) for A498/Caco-2, T84 and HepG2 cells, respectively) supplemented with 10% fetal calf serum and 1% antibiotics (streptomycin–penicillin solution). Cells were grown in 25 cm^2 ventilated flask maintained at 37 °C in a 5% CO2 incubator. Cells were routinely passed using trypsin-EDTA solution. For deacetylation experiments, cells were seeded onto 6-well plates at an initial density of 200,000 cells/cm^2. HepG2 and A498 were used 3–4 days post-seeding when confluence was reached. Caco-2 and T84 cells were let to differentiate for 10–14 days post-seeding before being used. In all cases, cells were washed three times with sterile phosphate buffer saline PBS^++ (PBS containing 100 mg/L of calcium and magnesium salts) before deacetylation assay.
Stock solutions of DON, 3ADON and 15ADON at 2 mg/mL were prepared in absolute ethanol and stored at −20 °C. […] In all cases, aliquots of the reaction solution were collected immediately (i.e., “time zero” sample) or after the indicated time period at 37 °C and analyzed by HPLC. […]

[2] = tested on: secreted digestive enzymes and fecal bacteria; assay: Deacetylation of 3/15ADON by secreted digestive enzymes and fecal bacteria (taken together); type: in vitro ADME; conditions: digestive enzymes plus fecal bacteria
Method: The whole procedure involving fecal bacteria (including the use of fecal bacteria for the deacetylation assay) was performed in an anaerobic cabinet (Coy Laboratory Products, Grass Lake, MI, USA). Human fecal bacteria were isolated from three volunteers (men) working in the department, 40–50 years of age. Stools were collected fresh in a sterile container and were immediately introduced into the anaerobic cabinet. Feces samples were taken by pushing a cut-off disposal 1 mL pipette tip into the inner part of the stools. Samples were then mechanically suspended in 9 mL of degassed PBS^++. Homogenates were allowed to decant for ten minutes to eliminate insoluble matter, and supernatants (1 mL aliquots) were transferred to sterile Eppendorf tubes and used for deacetylation assay.
Stock solutions of DON, 3ADON and 15ADON at 2 mg/mL were prepared in absolute ethanol and stored at −20 °C. For deacetylation assay, 3- or 15ADON were incubated with cells, explants, bacteria or digestive enzymes after being diluted in PBS^++ at a final concentration of 100 μM. PBS^++ solution containing only ethanol (at 1.5% final concentration) or DON (at 100 μM) were used in parallel as negative and positive control, respectively. […] In all cases, aliquots of the reaction solution were collected immediately (i.e., “time zero” sample) or after the indicated time period at 37 °C and analyzed by HPLC. […]

[3] = tested on: liver explant; assay: Deacetylation of 3/15ADON by human liver explants; type: in vitro ADME; conditions: for % of deacetylation: hepatic explants, 6 h incubation, 100 μM; for Disappearance of 3/15ADON, specific activity: liver explant, 37 °C, substrate 100 μM; for Contribution to total deacetylation activity: Liver: percentage of sum of specific activities (Figure 8)
Text: Human tissue samples were obtained from patients undergoing surgery at the Hospital Nord of Marseille, unit of general and gastrointestinal surgery according to a collaborative “clinical transfer” project. The procedures were approved by the French ethic committee (CODECOH n° DC-2011-1319). Patients were from both genders (six men, three women), 31–74 years of age, all of European origin. All patients agree to use their tissues for research purposes. Samples were taken from macroscopically unaffected area as identified by the surgeon for intestinal samples or the pathologist for liver resections. Diagnoses leading to surgery were carcinoma for intestine or liver. After resection, the specimens were placed in ice-cold non-sterile Krebs solution implemented and transferred to the school of medicine on the same campus within 5 min, composition of the Krebs solution being previously described. The tissues were rinsed several times and maintained in oxygenated Krebs during 1 h for recovery before final dissection. Intestinal and hepatic resections were extensively washed and maintained in ice-cold culture media containing 1% streptomycin/penicillin solution and 50 μg/mL gentamycin. Tissues were cleaned from vascular vessels and conjunctive tissue using forceps under binocular microscope. In case of intestinal resection, muscularis and plexus were removed and only epithelial layer was kept. Intestinal and hepatic explants (wet weight of 20–30 mg) were then isolated from the cleaned resections using surgical punch (diameter of […]). […] Finally, the explants were washed 3 times with PBS^++ and transferred into 6-well plates before being used for deacetylation assay.
Stock solutions of DON, 3ADON and 15ADON at 2 mg/mL were prepared in absolute ethanol and stored at −20 °C. For deacetylation assay, 3- or 15ADON were incubated with cells, explants, bacteria or digestive enzymes after being diluted in PBS^++ at a final concentration of 100 μM. PBS^++ solution containing only ethanol (at 1.5% final concentration) or DON (at 100 μM) were used in parallel as negative and positive control, respectively. For cells and explants, deacetylation assay take place in 6-well plates, wells being filled with 2 mL of PBS^++ containing either ethanol, DON, 3- or 15ADON. For fecal bacteria and digestive enzyme assay, deacetylation assay was conducted in 2 mL Eppendorf tubes filled with 1.5 mL of PBS^++ containing either ethanol, DON, 3- or 15ADON. In vitro intestinal digestion by luminal enzymes was performed using porcine enzymes from Sigma-Aldrich and physiological conditions. Briefly, 3- or 15ADON were incubated with pepsin (at 1.6 mg/mL corresponding to 900 U/mL), trypsin (at 0.35 mg/mL corresponding to 6000 U/mL), pancreatic lipase (at 0.75 mg/mL corresponding to 18 U/mL) or pancreatin (at 1.23 mg/mL, lipase activity >10 U/mL, protease activity >100 U/mL, amylase activity >100 U/mL). Except for pepsin for which the digestion was conducted in HCl solution at 10 mM (pH 2.3), in vitro digestion was performed in PBS^++ (pH 7.4). Finally, deacetylation assay was also performed with commercial pooled S9 fractions from human liver, small intestine and kidneys as well as with pure recombinant human CES1 and CES2. S9 fractions and CES1/2 were used at 0.1 mg/mL and 5 μg/mL (corresponding to CES activity >20 U/mL), respectively. In all cases, aliquots of the reaction solution were collected immediately (i.e., “time zero” sample) or after the indicated time period at 37 °C and analyzed by HPLC. […] In all cases, the experiments were conducted in triplicate (n = 3).

Row | SMILES | Disappearance of 3/15ADON, specific activity ([1]; A498, 37 °C, substrate 100 μM) | Contribution to total deacetylation: intestinal luminal events [2] | % of deacetylation [3] | Disappearance of 3/15ADON, specific activity [3] | Contribution to total deacetylation activity: Liver [3] | Activity of renal cells on 15ADON ([1]; in words)
1 | CC(=O)O[C@@H]1C[C@]2(C)[C@@]3(CO)[C@H](O)C(=O)C(C)=C[C@H]3O[C@H]1[C@@]21CO1 [3ADON, 3-acetyldeoxynivalenol] | 79 pmol/min/mg and 79 ± 46 pmol/min/mg | 16% | 54.6% ± 15.4% | 714 pmol/min/mg and 714 ± 198 pmol/min/mg | 56% | 
2 | CC(=O)OC[C@]12[C@H](O)C(=O)C(C)=C[C@H]1O[C@@H]1[C@H](O)C[C@@]2(C)[C@]12CO2 [15ADON, 15-acetyldeoxynivalenol] |  | 34% | 24.6% ± 2.8% | 330 pmol/min/mg and 330 ± 34 pmol/min/mg | 52% | virtually inactive
